Source: PubChem BioAssay (NCI)
Several values for one entry are separate records, joined by “and”; a condition that tells them apart may be missing. Equal entries are not always repeated.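 Grown in 96-well plates, cells were treated for 48 hours with each compound at five concentrations. Insufficient inhibition: endpoint recorded as highest concentration tested. Abbreviation: GI50, concentration required for 50% inhibition of growth. TGI: concentration producing complete growth inhibition.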

Key:
Assay in all cases: inhibition of tumour cell growth, NCI panel, 48 h
[1] = test system: CCRF-CEM leukemia
[2] = test system: DU-145 prostate
[3] = test system: HCT-116 colon
[4] = test system: HOP-92 NSCLC
[5] = test system: HS 578T breast
[6] = test system: MCF7 breast
[7] = test system: NCI-H460 lung
[8] = test system: OVCAR-5 ovarian
[9] = test system: SK-MEL-2 melanoma
[10] = test system: SNB-19 CNS

Compound | GI50 [1] | TGI [1] | GI50 [2] | TGI [2] | GI50 [3] | TGI [3] | TGI [4] | GI50 [5] | TGI [5] | GI50 [6] | TGI [6] | GI50 [7] | TGI [7] | GI50 [8] | TGI [8] | GI50 [9] | TGI [9] | GI50 [10] | TGI [10] | GI50 [4]
COc1cc2nccc(Oc3ccc(NC(=O)C4(C(=O)Nc5ccc(F)cc5)CC4)cc3)c2cc1OC | > 10 µM and 3.65 µM | > 100 µM | > 10 µM and 5.47 µM | > 100 µM | > 10 µM and 3.73 µM | > 41.5 µM | 8.01 µM and 1.46 µM | 0.45 µM and 0.857 µM | > 10 µM and 10.8 µM | > 10 µM and 4.06 µM | > 54.2 µM | > 10 µM and 3.27 µM | > 94.6 µM | > 10 µM and 3.5 µM | > 58.3 µM | > 10 µM and 7.13 µM | > 10 µM and 27.9 µM | > 10 µM and 7.69 µM | > 100 µM | 
O=C(c1ccccc1)c1ccc(N2C(=O)C3C4c5ccccc5C(/C=C/C(=O)c5ccccn5)(c5ccccc54)C3C2=O)cc1 (stereo not drawn) | 0.976 µM | > 100 µM | 2.78 µM | 8.1 µM | 1.66 µM | 4.02 µM | 7.13 µM | 2.98 µM | > 100 µM | 1.77 µM | > 100 µM | 2.67 µM | 9.23 µM | 2 µM | 5.97 µM | 3.07 µM | 15.4 µM | 3.72 µM | > 100 µM | 1.8 µM
O=C1COc2c(CCNCCN(C(=O)CCNCCc3ccc(Cl)c(Cl)c3)C3CCCCC3)ccc(O)c2N1 | 11 µM | 27.6 µM | 17.7 µM | 32 µM | 14.6 µM | 28.4 µM | 17.5 µM | 15.4 µM | 34.9 µM | 11.9 µM | 27.8 µM | 16.5 µM | 31.1 µM | 13.6 µM | 28.4 µM | 17.2 µM | 34.9 µM | 15 µM | 31 µM | < 0.0353 µM
Nc1ccc(N)c2c1C(=O)c1cccc([N+](=O)[O-])c1C2=O | 7.95 µM | > 100 µM | 0.662 µM | 6.9 µM | 2.73 µM | > 48.2 µM | > 100 µM | 2.47 µM | 26.2 µM | 0.32 µM | 18 µM | 0.206 µM | 1.27 µM | 8.19 µM | > 100 µM | 7.74 µM | > 100 µM | 2.4 µM | > 30.4 µM | 16.3 µM
N#Cc1c(N/N=C/c2c(Cl)cccc2Cl)nc(N)nc1N1CCCC1 | 3.52 µM | 16.1 µM | 5.23 µM | > 100 µM | 1.01 µM | 16.8 µM | > 100 µM | 3.05 µM | > 100 µM | 5.8 µM | > 100 µM |  |  | 8.31 µM | > 100 µM | 5.55 µM | > 100 µM | 7.14 µM | > 100 µM | 9.41 µM
COC(=O)c1ccccc1NCc1cc(O)ccc1O |  | > 46.3 µM |  | > 100 µM |  | 35.2 µM | 35.3 µM |  | 61.5 µM |  | 38 µM |  | > 31.6 µM |  | > 62.1 µM |  | 58.3 µM |  | > 74.1 µM | 
c1csc(-c2[nH]nc3c2CCc2ccccc2-3)c1 | 21.7 µM | 73.3 µM | 23.4 µM | 71.3 µM | 14.9 µM | 29.3 µM | 20.4 µM | 14.5 µM | 55.4 µM | 0.23 µM | 11.8 µM | 9.12 µM | 34.3 µM | 0.959 µM | 32.4 µM | 19.7 µM | 37.9 µM | 13.3 µM | > 65.9 µM | 1.88 µM
Cc1c(N)nc(C2CC(=O)N2CC(N)C(N)=O)nc1C(=O)NC(C(=O)NC(C)C(O)C(C)C(=O)NC(C(=O)NCCc1nc(-c2nc(C(=O)NCCNCC(C)O)cs2)cs1)C(C)O)C(OC1OC(CO)C(O)C(O)C1OC1OC(CO)C(O)C(OC(N)=O)C1O)c1cnc[nH]1 (stereo not drawn) | 12.6 µM | 50 µM and > 33 µM |  | 37.6 µM | 6.97 µM | 50 µM and 24.3 µM | 9.68 µM |  | 50 µM |  | 50 µM | 0.208 µM | 50 µM and 13.6 µM | 9.82 µM | 50 µM and 57.4 µM | 31.7 µM | 50 µM and > 79.2 µM | 13.6 µM | 50 µM and > 100 µM | 
COC(=O)/C(=C/c1ccc(OC)cc1)c1cc(OC)c(OC)c(OC)c1 |  | > 55.7 µM |  | 8.56 µM |  | 55.3 µM | > 55.9 µM |  | 5.69 µM |  | > 100 µM |  | 45.9 µM |  | > 100 µM |  | > 100 µM |  | 98 µM | 
COc1cc(/C=C/C(=O)c2c(-c3ccc(Cl)cc3)nc3sc(C)nn23)cc(OC)c1OC | 3.92 µM | 87.7 µM | > 100 µM | > 100 µM | 15.7 µM | > 100 µM | 25.1 µM | 24.7 µM | > 100 µM | 8.81 µM | > 100 µM | > 100 µM | > 100 µM | > 100 µM | > 100 µM |  |  | > 100 µM | > 100 µM | 3.48 µM
O=C1OC(c2ccccc2)=N/C1=C\c1ccc(N(CCCl)CCCl)cc1 |  | > 100 µM |  | > 100 µM |  | > 100 µM | > 84.6 µM |  | > 100 µM |  | > 100 µM |  | > 100 µM |  | > 100 µM |  | > 100 µM |  | > 100 µM | 
CC(C)c1nc(Cl)c(Cl)c(Cl)n1 |  | 9.33 µM |  | 20.3 µM |  | 14.2 µM | 14.2 µM |  | 14 µM |  | 14.2 µM |  | 48.4 µM |  | 17.7 µM |  |  |  | 36.2 µM | 
COc1ccc(C[C@H](N)C(=O)N[C@@H]2[C@@H](CO)OC(n3cnc4c(N(C)C)ncnc43)[C@@H]2O)cc1 (stereo partly drawn) |  |  | 0.458 µM | 2.53 µM | 0.152 µM | 0.628 µM | 0.51 µM | 0.304 µM | 2.11 µM | 0.152 µM | 0.621 µM |  | 0.889 µM | 1.14 µM | 2.94 µM |  | 1.23 µM | 0.339 µM | 1.71 µM | 0.12 µM
ClCc1ccc(Cn2cnc3nc(Cl)nc(Cl)c32)cc1 | 1.79 µM | 6.19 µM | 0.444 µM | 1.12 µM | 0.235 µM | 1.26 µM |  | 19.2 µM | 44.8 µM | 0.663 µM | 2.36 µM | 3.65 µM | 9.19 µM | 1.8 µM | 3.54 µM | 1.41 µM | 3.06 µM | 3.01 µM |  | 
